Measured values reported in patent publication US5672584A (priority 1995, dated 1997).
Read-outs that look alike come from different tables or passages of the source. Where a SMILES comes first, the peptide text is derived from it. Where no end group is shown, it is not given here.

Assays:
Caco-2 cell monolayer = conditions: for increase in permeability compared to capped hexapeptide Ac-Trp-Ala-Gly-Gly-Asp-Ala-NH2: Caco-2 Papp ratio; for Papp (apparent permeability coefficient): applied to AP side, flux to BL side of Caco-2 monolayer; for permeation to BL side of the monolayer: AP-to-BL, in the absence or presence of protease inhibitors (bestatin, diprotin, captopril)
[1] = human, whole blood, pH 7.4
in vitro = conditions: rat, blood, pH 7.4
[2] = HBSS, pH 7.4, 37° C.
[3] = incubated in human blood, pH 7.4, 37° C.
[4] = rat, whole blood, pH 7.4
[5] = human, Caco-2

## Cc1cc(C)c2c(c1)OC(=O)[C@H](C)NC(=O)[C@H](CC(=O)O)NC(=O)CNC(=O)CNC(=O)[C@H](C)NC(=O)[C@H](Cc1c[nH]c3ccccc13)NC(=O)CC2(C)C [1b] (HELM PEPTIDE1{W.A.G.G.D.A}|CHEM1{[Cc1cc(C)c(C(C)(C)CC(=O)[*:1])c(O[*:2])c1]}$PEPTIDE1,CHEM1,1:R1-1:R1|PEPTIDE1,CHEM1,6:R2-1:R2$$$V2.0)
Caco-2 cell monolayer
  increase in permeability compared to capped hexapeptide Ac-Trp-Ala-Gly-Gly-Asp-Ala-NH2: 5-6 fold
  Papp (apparent permeability coefficient): 1.21±0.36×10^-7 cm/sec.
[1]
  half-life: 2.88 h
In vitro
  half-life: 2.88 h
[2]
  half-life of chemical stability (T1/2): 12.7 h

## C[C@@H]1NC(=O)[C@H](Cc2c[nH]c3ccccc23)NC(=O)OCOC(=O)[C@H](C)NC(=O)[C@H](CC(=O)O)NC(=O)CNC(=O)CNC1=O [1a] (HELM PEPTIDE1{W.A.G.G.D.A}|CHEM1{[O=C(OCO[*:2])[*:1]]}$PEPTIDE1,CHEM1,1:R1-1:R1|PEPTIDE1,CHEM1,6:R2-1:R2$$$V2.0)
Caco-2 cell monolayer
  increase in permeability compared to capped hexapeptide Ac-Trp-Ala-Gly-Gly-Asp-Ala-NH2: 5-6 fold
  Papp (apparent permeability coefficient): 1.17±0.11×10^-7 cm/sec.
[2]
  half-life of chemical stability (T1/2): 3.47 h
[3]
  T1/2 in human blood: 1.65 h
[4]
  half-life: 1.85 h

## Ac-WAGGDA-NH2 [Ac-Trp-Ala-Gly-Gly-Asp-Ala-NH2, reference compound]
Caco-2 cell monolayer
  Papp (apparent permeability coefficient): 2.1±0.5×10^-8 cm/sec.
[5]
  remaining at 3 h: 75.8 ± 4%

## WAGGDA [Trp-Ala-Gly-Gly-Asp-Ala, reference compound]
Caco-2 cell monolayer
  permeation to BL side of the monolayer: no detectable quantities
Caco-2 cell monolayer; listed as native peptide
  permeation to BL side of the monolayer: totally impermeable
[5]
  remaining at 2 h: 0.8 ± 0.1%
